Results on 13 compounds are retold here after PMC7000730, “CAPA neuropeptides and their receptor form an anti-diuretic hormone signaling system in the human disease vector, Aedes aegypti” (Scientific Reports, 2020).

Assay [1] concerns the target T1, A. aegypti CAPA receptor (CAPAr, anti-diuretic hormone receptor) (Aedes aegypti, UniProt A0A7D5D2Z2).
T1 sequence (A0A7D5D2Z2 1-712): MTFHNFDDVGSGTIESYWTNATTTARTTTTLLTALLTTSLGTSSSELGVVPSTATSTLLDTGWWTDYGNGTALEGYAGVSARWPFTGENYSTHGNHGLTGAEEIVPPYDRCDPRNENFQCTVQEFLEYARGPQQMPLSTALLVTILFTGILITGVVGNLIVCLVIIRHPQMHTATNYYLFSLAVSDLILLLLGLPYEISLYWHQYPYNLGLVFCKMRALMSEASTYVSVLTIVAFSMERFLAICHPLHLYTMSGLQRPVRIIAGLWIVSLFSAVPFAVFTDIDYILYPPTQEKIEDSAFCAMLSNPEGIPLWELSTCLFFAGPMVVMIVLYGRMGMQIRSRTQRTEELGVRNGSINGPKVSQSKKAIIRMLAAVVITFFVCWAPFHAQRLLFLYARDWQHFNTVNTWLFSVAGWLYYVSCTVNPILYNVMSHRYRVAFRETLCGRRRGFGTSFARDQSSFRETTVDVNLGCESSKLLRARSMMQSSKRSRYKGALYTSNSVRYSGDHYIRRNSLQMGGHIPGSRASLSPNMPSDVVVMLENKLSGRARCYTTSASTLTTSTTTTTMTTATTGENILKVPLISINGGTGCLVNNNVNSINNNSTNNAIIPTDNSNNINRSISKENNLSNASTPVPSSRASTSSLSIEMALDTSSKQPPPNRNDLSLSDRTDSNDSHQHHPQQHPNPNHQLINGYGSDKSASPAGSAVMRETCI
Nature of the assay: Heterologous receptor functional activation bioluminescence assay (CHO-K1 aequorin). The conditions noted are these: for CAPAr activation (in words): calcium-based luminescence. Type of assay: cell-based. The procedure:
(B) Raw luminescent response following application of each CAPA gene-derived neuropeptide and representative neuropeptides belonging to several insect families, each tested at 10 μM. For peptide sequence information and species origin, see Table S3. […] Data represent the mean ± standard error (n = 3).
The open reading frame of the cloned A. aegypti CAPAr was inserted into pcDNA3.1+ mammalian expression vector following procedures described previously[60],[92],[93]. Using a recombinant CHO-K1 cell line stably expressing aequorin[59], A. aegypti CAPAr was transiently expressed following growth and transfection conditions as reported recently. Cells were harvested for the functional assay at 48 hours post-transfection by detaching cells from the culture flask using 5 mM EDTA in Dulbecco’s PBS (DPBS; Wisent Corp., St. Bruno, QC) and later cells were resuspended at a concentration of 10^6–10^7 cells/mL in assay media and incubated with coelenterazine h as described previously. Prior to running the functional assay, cells were diluted 10-fold in assay media and left to incubate for one additional hour. Several endogenous as well as other insect neuropeptides representing a variety of neuropeptide families (see Table S2) were tested by preparing serial dilutions of each peptide in assay media. All peptides were commercially synthesized at a purity of >90% (Genscript, Piscataway, NJ) and 1 mM stock solutions were prepared by dissolving 1 mg of each peptide in water or DMSO as appropriate based on specific peptide characteristics. Recombinant CHO-K1 cells expressing the A. aegypti CAPAr were loaded into each well of multi-well plate using an automated injector module linked to a Synergy 2 Multi Mode Microplate Reader (BioTek, Winooski, VT) which measured kinetic luminescent response from each well for 20 sec immediately following cell loading onto the different peptides at various doses. Data was compiled in Microsoft Excel and analyzed in GraphPad Prism 8.0 (GraphPad Software, San Diego, CA).
Table S2. List and primary structure of several insect neuropeptides tested for functional activation of the mosquito anti-diuretic hormone (CAPA) receptor using heterologous bioassay.

In assay [2] the test system is isolated MTs of adult female A. aegypti (diuretic hormone-stimulated fluid secretion). Nature of the assay: Malpighian tubule fluid secretion assay (modified Ramsay assay). On the set-up: species or system Aedes aegypti. The settings on record: for effect of inhibitor on inhibition by AedaeCAPA-1 and cGMP, 5HT-stimulated MTs: 5HT 100 nmol l^-1, AedaeCAPA-1 1 fmol l^-1 or cGMP (8 bromo-cGMP) 100 nmol l^-1, L-NAME 2 µmol l^-1 or KT5823 5 µmol l^-1, 60 min. Here is the method:
To further understand the anti-diuretic signaling pathway involving the CAPA neuroendocrine system, pharmacological blockers, including inhibitors of NOS (L-NAME) and PKG (KT5823), were tested against diuretic hormone-stimulated MTs alone and together with either AedaeCAPA-1 or cGMP.
Figure 5 Effect of a nitric oxide synthase (NOS) inhibitor (L-NAME) on the anti-diuretic activity of AedaeCAPA-1 and cGMP in DromeDH31-stimulated A. aegypti MTs. The NOS inhibitor, L-NAME, was applied against (A) DromeDH31- and (B) 5HT-stimulated MTs alone or in the presence of either AedaeCAPA-1 or cGMP. Secretion rates are presented as mean ± SEM, n = 17–22.
Figure 6 Effect of a protein kinase G (PKG) inhibitor (KT5823) on the anti-diuretic activity of AedaeCAPA-1 and cGMP in DromeDH31-stimulated A. aegypti MTs. The PKG inhibitor, KT5823, was applied against (A) DromeDH31- and (B) 5HT-stimulated MTs alone or in the presence of either AedaeCAPA-1 or cGMP. Secretion rates are presented as mean ± SEM, n = 16–25.
In order to determine fluid secretion rates, a modified Ramsay secretion assay[85] was performed on isolated MTs of 3–6 day old adult female A. aegypti, as reported recently. Tissue dissections were performed under physiological saline prepared as described previously[86] diluted 1:1 with Schneider’s Insect Medium (Sigma-Aldrich, Oakville, ON). Individual MTs were removed and transferred to a Sylgard-lined Petri dish containing 20 μl saline bathing droplets immersed in hydrated mineral oil to prevent evaporation. The proximal end of the MT was removed from the bathing saline and wrapped around a Minuten pin to allow for secretion measurements. Dosages of 25 nmol l^−1 DromeDH31[22] or 100 nmol l^−1 5HT[97],[98] alone or in combination with 1 fmol l^−1 AedaeCAPA-1[37] were applied to the isolated MTs as previously described. […] To investigate the effects of the pharmacological blockers, a nitric oxide synthase (NOS) inhibitor, Nω-Nitro-L-arginine methyl ester hydrochloride (L-NAME), and protein kinase G (PKG) inhibitor, KT5823, were used against 5-HT- and DH31-stimulated MTs. Dosages of 2 µmol l^−1 L-NAME (manufacturer’s recommended dose) and 5 µmol l^−1 KT5823[36] were applied to the MTs. The inhibitors were treated in conjunction with 1 fmol l^−1 AedaeCAPA-1 and/or 100 nmol l^−1 cyclic guanosine monophosphate, 8 bromo-cGMP (cGMP)[37] (Sigma-Aldrich, Oakville, ON, Canada). Unstimulated controls consisted of tubules bathed in physiological saline with no diuretic application. Following a 60-minute incubation period, the size of the secreted droplet was measured using an eyepiece micrometer and fluid secretion rate (FSR) was calculated as described previously. […]

The test system is the same in assay [3]. The conditions noted are these: ref [37]; cited from earlier work. The text has this: The influx of Ca^2+ through these channels activates NOS, causing the production of NO, which subsequently activates guanylate cyclase to increase levels of cGMP in the MTs[44]. Ultimately, the activation of the NO/cGMP pathway stimulates the apical V-type H^+-A ...
The mark [4] stands for this setting: CHO-K1 cells stably expressing aequorin, A. aegypti CAPAr transiently expressed (48 h post-transfection), coelenterazine h, kinetic luminescence for 20 sec, dose-response, n = 3, read-out: EC50 on CAPAr.
Where [5] appears, read: n = 17–22 (L-NAME), 16–25 (KT5823).
Setting [6] is: CHO-K1-aequorin cells expressing CAPAr, luminescence, tested up to 10 μM, read-out: EC50 on CAPAr (NA = no detectable activity).

“Also recorded” adds a separate entry of the source. Where a name gives a salt, the structure may show the parent alone. Read-outs that look alike come from different tables or passages of the source. Non-standard residues stand in square brackets, D forms with d. Residues, ends and D or L forms follow the SMILES beside them. No end group written: not given here. pGlu = O=C1CC[C@@H](C(=O)O)N1 Bounds are passed on as bounds.

By EC50 is commonly meant the concentration that produces a half-maximal response. `CC(C)C[C@H](NC(=O)CNC(=O)[C@@H]1CCC(=O)N1)C(=O)N[C@H](C(=O)N1CCC[C@H]1C(=O)N[C@@H](Cc1ccccc1)C(=O)N1CCC[C@H]1C(=O)N[C@@H](CCCNC(=N)N)C(=O)N[C@H](C(N)=O)C(C)C)C(C)C` [CAPA2] ([pGlu]GLVPFPRV-NH2): in assay [1] (CHO-K1-aequorin cells expressing CAPAr), the “CAPAr activation (in words)” value was “potently activate this receptor”. In assay [1] (setting [4]), the EC50 was 0.00562 µM. Besides, in assay [1] (each peptide at 10 μM, vs BSA vehicle control, one-way ANOVA, Tukey, p < 0.01, n = 3), the “raw luminescent response at 10 μM (in words)” value is reported as “no difference in response was observed between the two endogenous CAPA neuropeptides”.
Turning to `COC(=O)[C@@]1(OC)C[C@H]2O[C@]1(C)n1c3ccccc3c3c4c(c5c6ccccc6n2c5c31)C(=O)N(C)C4` [KT5823], the “effect of inhibitor on inhibition by AedaeCAPA-1 and cGMP, 5HT-stimulated MTs” value in assay [2] (setting [5]) is “the inhibitory activity of AedaeCAPA-1 and cGMP on 5HT-stimulated tubules was abolished”. The “effect of inhibitor on inhibition of both DH31- and 5HT-stimulated diuresis” value in assay [2] (AedaeCAPA-1 1 fmol l^-1 or cGMP 100 nmol l^-1, KT5823 5 µmol l^-1, 60 min) was “the inhibition of both DH31- and 5HT stimulated diuresis by AedaeCAPA-1 and cGMP were sensitive to the PKG inhibitor, KT5823”. The “effect of inhibitor on inhibition by both AedaeCAPA-1 and cGMP, DH31-stimulated MTs” value in assay [2] (DromeDH31 25 nmol l^-1, AedaeCAPA-1 1 fmol l^-1 or cGMP (8 bromo-cGMP) 100 nmol l^-1, KT5823 5 µmol l^-1, 60 min, n = 16–25) was “abolished the inhibitory effect of both cGMP and AedaeCAPA-1; also recorded: abolished the anti-diuretic activity of both AedaeCAPA-1 and cGMP, resulting in normal DH31-induced diuresis”.
As to `COC(=O)[C@@H](N)CCCNC(N)=N[N+](=O)[O-]` [L-NAME, Nω-Nitro-L-arginine methyl ester hydrochloride], in assay [2] (setting [5]), the “effect of inhibitor on inhibition by AedaeCAPA-1 and cGMP, 5HT-stimulated MTs” value was “neither AedaeCAPA-1 nor cGMP inhibition are influenced by L-NAME; also recorded: L-NAME had no influence on the anti-diuretic activity of AedaeCAPA-1 in 5HT-stimulated MTs”. Moreover, in assay [2] (DromeDH31 25 nmol l^-1, AedaeCAPA-1 1 fmol l^-1, L-NAME 2 µmol l^-1 or KT5823 5 µmol l^-1, 60 min, n = 17–22 (L-NAME), 16–25 (KT5823)), the “effect of inhibitor on inhibition by AedaeCAPA-1, DH31-stimulated MTs” value is given as “the inhibitory effect of AedaeCAPA-1 was abolished; also recorded: AedaeCAPA-1 mediated inhibition of DH31-stimulated MTs was mitigated in the presence of L-NAME, reducing the anti-diuretic effects observed with AedaeCAPA-1”. Moreover, the “effect of inhibitor on inhibition by cGMP, DH31-stimulated MTs” value in assay [2] (DromeDH31 25 nmol l^-1, cGMP (8 bromo-cGMP) 100 nmol l^-1, L-NAME 2 µmol l^-1 or KT5823 5 µmol l^-1, 60 min, n = 17–22 (L-NAME), 16–25 (KT5823)) is recorded as “no influence on the inhibitory effect of cGMP; also recorded: did not alter the inhibitory effects of exogenous cGMP”.
As to `Nc1nc2c(nc(Br)n2[C@@H]2O[C@@H]3COP(=O)(O)O[C@H]3[C@H]2O)c(=O)[nH]1` [cGMP, cyclic guanosine monophosphate, 8 bromo-cGMP], the “inhibition of fluid secretion rate (earlier work)” value in assay [3] is on record as “considerably inhibits fluid secretion rate”.
As to AGNSGANSGMWFGPRL-NH2 [PK1], in assay [1] (10 μM (saturating dose), n = 3), the “luminescent response as activity compared to either CAPA peptide” value is ~ 20%. The “potency compared to the canonical CAPA ligands” value in assay [1] (CAPAr in CHO-K1-aequorin cells) was “over five orders of magnitude lower compared to the canonical CAPA ligands”. Moreover, the “CAPAr activation (in words)” value in assay [1] (CHO-K1-aequorin cells expressing CAPAr, listed as Aedae-PK1) was “low agonist activity”; in assay [1] (CHO-K1-aequorin cells expressing CAPAr, listed as pyrokinin 1-related peptide), “very poor activity compared to the two CAPA peptides”; in assay [1] (CHO-K1-aequorin cells expressing CAPAr, listed as pyrokinin-1) it was “a significantly higher concentration of pyrokinin-1 was needed to achieve even low level CAPAr activation”. Moreover, the EC50 in assay [1] (CHO-K1 cells stably expressing aequorin, A. aegypti CAPAr transiently expressed (48 h post-transfection), coelenterazine h, kinetic luminescence for 20 sec, tested up to 10 μM, read-out: EC50 on CAPAr) was over 10 µM.
For the compound AWNSLHGGW-NH2 [MIP-7], the half-maximal effective concentration (EC50) in assay [1] (setting [6]) is over 10 µM.
For the compound GPTVGLFAFPRV-NH2 [CAPA1], in assay [1] (setting [4]), the EC50 worked out at 0.00676 µM.
Regarding GYRKPPFNGSIF-NH2 [SIFa], in assay [1] (setting [6]), the EC50 was over 10 µM.
With KAVRSPSLRLRF-NH2 [sNPF], the concentration giving a half-maximal response (EC50) in assay [1] (setting [6]) was over 10 µM.
Same read-out and setting: under NSVVLGKKQRFHSWG-NH2 [kinin] stands over 10 µM; under NTVNFSPRL-NH2 [PK2-1], over 10 µM.
Still for that read-out and setting: the same measure for SALDKNFMRF-NH2 [FMRFa-1]: over 10 µM.
The same measure, in the same setting: the same measure for SPPFAPRL-NH2 [PK2-2]: over 10 µM.
